Calls of active or inactive are those of the source. No rule for the calls is given here. Bounds are passed on as bounds.

The first assay deals with Toxin B (TcdB) glycohydrolase, Clostridioides difficile 630. The assay is described as follows: TcdB glycohydrolase inhibitors, dose response, biochemical, cherry-pick, plate reader (AID 720512). The conditions noted are these: recombinant TcdB glycohydrolase activity.
Take `Cc1ccc(N/N=C/c2c(O)n(-c3ccccc3)c(=O)[nH]c2=O)cc1`: the AC50 (usually the midpoint of the concentration-response curve, whichever way the signal moves) was 8.13 µM.

In the case of `CC1(C)Cc2c(sc3ncn4c(=S)[nH]nc4c23)CO1`, the AC50 was > 39 µM (inactive).

As for `CCNC(=O)C[C@H]1CC[C@@H]2[C@@H](COc3ccc(NC(=O)c4cccc(OC)c4)cc3C(=O)N2C)O1`, the AC50 was > 39 µM (inactive).

For `COc1cc2c(cc1O)CC[n+]1cc3c(OC)c(OC)ccc3cc1-2`, the AC50 was > 39 µM (inactive).

Staying with this assay, now noted: recombinant TcdB glycohydrolase activity, at 10 µM (top of the series).
On to `O=C(COc1cccc(C(F)(F)F)c1)N1CCN(c2ccc(O)cc2)CC1`, for which the “activity change, negative = inhibition” value was “inactive”.

The assay is the same for the next values; noted with them: recombinant TcdB glycohydrolase activity, at 19.5 µM (top of the series).
Regarding `O=C1Cc2cc(S(=O)(=O)NCc3ccccc3Cl)cc3c2N1CCC3`, the “activity change, negative = inhibition” value was “inactive”.

Consider `O=C(C[C@H]1C[C@H]2c3cc(NC(=O)c4ccc5c(c4)OCO5)ccc3O[C@H]2[C@@H](CO)O1)NCc1cccc(F)c1`, for which the “activity change, negative = inhibition” value is “inactive”.

`COc1ccc(-c2ccc3c(c2)[C@@H]2[C@@H](CCN2C(=O)C2CC2)[C@H](CO)N3C)cc1`: the “activity change, negative = inhibition” value is “inactive”.

Regarding `Cc1ccc(-c2nc3ccc([N+](=O)[O-])cc3[nH]2)cc1`, the “activity change, negative = inhibition” value was “inactive”.

With `O=C(NC(=S)NNC(=O)c1ccccc1F)c1cccnc1`, the “activity change, negative = inhibition” value was “inactive”.

Take `COc1ccc(C2=NS(=O)(=O)N(C)C(C(=O)NCc3ccccc3)=C2)cc1OC`: the “activity change, negative = inhibition” value is “inactive”.

In the case of `COc1ccc(-c2cnc3c(c2)C(=O)N([C@@H](C)CO)C[C@H](C)[C@H](CN(C)C(=O)C2CCCCC2)O3)cc1`, the “activity change, negative = inhibition” value is “inactive”.

With `Cc1ccc(NC(=O)OC(C)N2CCCCC2)cc1NC(=O)OC(C)N1CCCCC1` (stereo not drawn), the “activity change, negative = inhibition” value was “inactive”.

Turning to `CCCCn1c(-c2ccccc2C)nc2cc3[nH]c(=O)c(C(C)C)nc3cc21`, the “activity change, negative = inhibition” value was “inactive”.

Turning to `COc1ccccc1Oc1cn[nH]c1-c1ccc(O)cc1O`, the “activity change, negative = inhibition” value is “inactive”.

Regarding `O=C(Nc1ccc2c(c1)OCCO2)c1cc2ccccc2o1`, the “activity change, negative = inhibition” value is “inactive”.

In the case of `COc1ccc(CCNC(=O)CCCn2nc(C)n3ccnc3c2=O)cc1OC`, the “activity change, negative = inhibition” value was “inactive”.

As for `CCOc1ccccc1/C=C/c1onc(C)c1S(=O)(=O)N1CCC(C(=O)N(CC)CC)CC1`, the “activity change, negative = inhibition” value is “inactive”.

Regarding `CCCCCCCN1C(N(C)C)=NC[C@@H]1Cc1ccccc1`, the “activity change, negative = inhibition” value was “inactive”.

`O=C(O)c1ccccc1C(=O)c1ccc2c(c1)N(Cc1cccc(F)c1)C(=O)CO2`: the “activity change, negative = inhibition” value was “inactive”.

For the molecule `CC1CCN(CCCn2c(=S)[nH]c3c(sc4ccccc43)c2=O)CC1`, the “activity change, negative = inhibition” value is “inactive”.

In the case of `CC(C)CN1CCN(CC#Cc2ccccc2)CC1CCO` (stereo not drawn), the “activity change, negative = inhibition” value was “inactive”.

Consider `CCOc1ccc(S(=O)(=O)NCCC(=O)NCc2ccccn2)cc1`, for which the “activity change, negative = inhibition” value is “inactive”.

Turning to `Cc1cc(C)nc(/N=C(\N)Nc2ccccc2-c2ccccc2)n1`, the “activity change, negative = inhibition” value is “inactive”.

For the molecule `CC(C)C12NC(=O)NC(=O)N1CCS2` (stereo not drawn), the “activity change, negative = inhibition” value was “inactive”.

Consider `CNC(=O)C1CCN(S(=O)(=O)c2c(C)noc2/C=C/c2ccc(OC)cc2)CC1`, for which the “activity change, negative = inhibition” value is “inactive”.

Take `CCc1cc(/C(Cc2ccccn2)=N\O)c(O)cc1O`: the “activity change, negative = inhibition” value was “inactive”.

Take `COc1ccc(-c2ccc3c(c2)[C@H]2[C@H](CCN2C(=O)Cc2cccnc2)[C@@H](CO)N3C)cc1`: the “activity change, negative = inhibition” value is “inactive”.

On to `C[C@@H]1CN([C@H](C)CO)S(=O)(=O)c2ccc(-c3ccncc3)cc2O[C@@H]1CN(C)Cc1ccc(Oc2ccccc2)cc1`, for which the “activity change, negative = inhibition” value was “inactive”.

As for `CCC(=O)Nc1ccc2c(c1)OC[C@@H](C)N(C(=O)NC(C)C)C[C@@H](C)[C@@H](OC)CN(C)C2=O`, the “activity change, negative = inhibition” value was “inactive”.

As for `NC1=NC[C@H](Cc2ccc(O)cc2)N1CCc1cc(C(F)(F)F)cc(C(F)(F)F)c1`, the “activity change, negative = inhibition” value is “inactive”.

Turning to `COc1ccc2cc3c(nc2c1)OCC3`, the “activity change, negative = inhibition” value was “inactive”.

Turning to `COc1ccc(NC2CCCN(C(=O)CN3CCOC3=O)C2)cc1OC` (stereo not drawn), the “activity change, negative = inhibition” value was “inactive”.

As for `COc1ccc(NC(=O)Nc2nc(C)cc(C)n2)c(OC)c1`, the “activity change, negative = inhibition” value was “inactive”.

Regarding `Cc1ccc(C)c(CN2C(=O)COc3ccc(C(=O)c4ccccc4C(=O)O)cc32)c1`, the “activity change, negative = inhibition” value is “inactive”.

For `Cc1cc(C)c(S(=O)(=O)c2ccc(Cl)cc2C)c(Cl)n1`, the “activity change, negative = inhibition” value was “inactive”.

For the molecule `COc1cc(/C=C(/NC(=O)c2ccccc2)C(=O)Nc2ccc(O)cc2)c([N+](=O)[O-])cc1OC`, the “activity change, negative = inhibition” value was “inactive”.

Take `Cc1ccccc1C(C(=O)NC1CCCCC1)N(C(=O)c1ccccn1)c1cccnc1` (stereo not drawn): the “activity change, negative = inhibition” value was “inactive”.

Regarding `O=C(C[C@@H]1C[C@@H]2c3cc(NC(=O)c4ccc5c(c4)OCO5)ccc3O[C@@H]2[C@@H](CO)O1)NCc1cccc(F)c1`, the “activity change, negative = inhibition” value was “inactive”.

As for `COc1ccc([N+](=O)[O-])cc1NC(=S)NC(C)=O`, the “activity change, negative = inhibition” value is “inactive”.

`Cc1nn(C)cc1-c1n[nH]c(=S)n1-c1ccc(F)cc1`: the “activity change, negative = inhibition” value is “inactive”.

As for `CCOC(=O)c1ccc2ncc(-c3ccccc3)nc2c1`, the “activity change, negative = inhibition” value is “inactive”.

With `CCC(C)NC(=O)CSc1nc2cc(S(=O)(=O)N3CCOCC3)ccc2n1CC` (stereo not drawn), the “activity change, negative = inhibition” value is “inactive”.

Turning to `COc1cc(/C=N/NC(=O)c2c(C)nc3ccc(Cl)cn23)cc(OC)c1OC`, the “activity change, negative = inhibition” value is “inactive”.

On to `Cc1cc2c(cc1S(=O)(=O)N(C)c1ccccc1)NC(=O)CO2`, for which the “activity change, negative = inhibition” value is “inactive”.

On to `CN(C(=O)Cn1c(=O)oc2cc(S(=O)(=O)N3CCCC3)ccc21)C1CCCCC1`, for which the “activity change, negative = inhibition” value was “inactive”.

`O=C(CSc1cccc2cccnc12)N/N=C/c1ccc(F)cc1`: the “activity change, negative = inhibition” value was “inactive”.

On to `CNC(=O)C[C@@H]1CC[C@@H]2[C@H](COc3ccc(NS(=O)(=O)c4ccccc4C)cc3C(=O)N2C)O1`, for which the “activity change, negative = inhibition” value is “inactive”.

`CC(C)Cc1cc(C(=O)N2CCCC(CO)(Cc3ccc(F)cc3)C2)no1` (stereo not drawn): the “activity change, negative = inhibition” value was “inactive”.

For `CC12CCC(=O)N1C(C(=O)OCc1c(Cl)cccc1Cl)CS2` (stereo not drawn), the “activity change, negative = inhibition” value was “inactive”.

Consider `COc1cccc2sc(NNC(=O)C3COc4ccccc4O3)nc12` (stereo not drawn), for which the “activity change, negative = inhibition” value was “inactive”.

Regarding `Cc1ccc(S(=O)(=O)Oc2cccc(/C=N/n3cnnc3)c2)cc1`, the “activity change, negative = inhibition” value was “inactive”.

As to `O=C(O)c1cc(-c2ccccc2Cl)n(-c2cccc(Cl)c2)n1`, the “activity change, negative = inhibition” value was “inactive”.

As for `COc1ccc(C2=NS(=O)(=O)N(C)C(C(=O)N3CCc4ccccc4C3)=C2)cc1OC`, the “activity change, negative = inhibition” value is “inactive”.

Consider `O=C(O)c1ccc2c(c1)N(Cc1cccc(F)c1)C(=O)CS2`, for which the “activity change, negative = inhibition” value was “inactive”.

With `Cc1cc(C)cc(N=C2NC(=O)CS2)c1`, the “activity change, negative = inhibition” value was “inactive”.

As to `Cc1onc(-c2ccccc2)c1C(=O)N(Cc1ccco1)Cc1cccs1`, the “activity change, negative = inhibition” value was “inactive”.

As to `COc1ccc(CNC(=O)C2=CC(c3ccc(OC)cc3)=NS(=O)(=O)N2C)cc1`, the “activity change, negative = inhibition” value is “inactive”.

Consider `Cc1ccc(-c2cc(C(=O)OC3CCOC3=O)c3ccccc3n2)c(C)c1` (stereo not drawn), for which the “activity change, negative = inhibition” value was “inactive”.

With `CC(OC(=O)c1cccnc1Cl)C(=O)NC1CCCCC1` (stereo not drawn), the “activity change, negative = inhibition” value is “inactive”.

As to `COCC(=O)N1CC[C@@H]2[C@@H](CO)N(C)c3ccc(-c4ccccc4)cc3[C@@H]21`, the “activity change, negative = inhibition” value is “inactive”.

Regarding `O=C(NC(=S)NNS(=O)(=O)c1ccccc1)c1cccnc1`, the “activity change, negative = inhibition” value is “inactive”.

On to `COc1ccc(OCc2cc(-c3ccc(Cl)cc3)no2)cc1`, for which the “activity change, negative = inhibition” value was “inactive”.

As for `COc1ccc(-c2csc(NC(=O)c3ccccc3F)c2C(=O)O)cc1`, the “activity change, negative = inhibition” value is “inactive”.

In the case of `O=C(O)C1CCC(CN(Cc2cccc(Br)c2)C(=S)Nc2ccccc2F)CC1` (stereo not drawn), the “activity change, negative = inhibition” value was “inactive”.

Consider `COc1ccc(Cl)cc1NC(=O)CN(C)C(=O)c1cc2c(s1)CCCC2`, for which the “activity change, negative = inhibition” value is “inactive”.

For the molecule `Cc1ccccc1COc1ccc2oc(C)c(C(=O)O)c2c1`, the “activity change, negative = inhibition” value is “inactive”.

On to `COc1ccc(/C=C/c2onc(C)c2S(=O)(=O)N2CCC(C(=O)N3CCCCCC3)CC2)cc1`, for which the “activity change, negative = inhibition” value is “inactive”.

Regarding `O=C(NNC(=O)c1cccc2ccccc12)c1cccc(F)c1`, the “activity change, negative = inhibition” value is “inactive”.

As to `Cc1ccccc1NS(=O)(=O)c1ccc(OCC(=O)N2CCCCC2)cc1`, the “activity change, negative = inhibition” value was “inactive”.

With `NC(=O)C1(Nc2ccc(-c3ccc(Br)cc3)cc2)CCCC1`, the “activity change, negative = inhibition” value was “inactive”.

Turning to `Fc1cccc(NC(=S)NNc2c3ccccc3nc3ccccc23)c1`, the “activity change, negative = inhibition” value was “inactive”.

With `COc1ccc(C2=NS(=O)(=O)N(C)C(C(=O)N3CCN(C)CC3)=C2)cc1`, the “activity change, negative = inhibition” value was “inactive”.

For the molecule `Nc1ccc(C(=O)c2ccc3c(c2)OCCO3)cc1N`, the “activity change, negative = inhibition” value is “inactive”.

As for `CC(=O)Nc1n[nH]c(=S)s1`, the “activity change, negative = inhibition” value was “inactive”.

In the case of `O=C(COc1ccc(/C=N/NC(=O)c2ccc(O)cc2)cc1)Nc1cccc([N+](=O)[O-])c1`, the “activity change, negative = inhibition” value was “inactive”.

Still in this assay, the particulars now being: recombinant TcdB glycohydrolase activity, at 21 µM (top of the series).
On to `CCNC(=O)C[C@@H]1CC[C@H]2[C@@H](COc3ccc(NC(C)=O)cc3C(=O)N2C)O1`, for which the “activity change, negative = inhibition” value is “inactive”.

For `CN1C(=O)c2cc(NC(=O)Nc3ccccc3Cl)ccc2OC[C@H]2O[C@@H](CC(=O)NCCCN3CCOCC3)CC[C@H]21`, the “activity change, negative = inhibition” value is “inactive”.

Source of the values: PubChem BioAssay AID720512 (Broad Institute, 2013).
